From PMC7083837 (Nature Communications, 2020)
pIC50: −log10 of the molar value. Several values for one entry are separate records, joined by “and”; a condition that tells them apart may be missing. Equal entries are not always repeated.

Columns and labels:
SERT WT [1] = molecular target: T1, SERT WT (Homo sapiens, UniProt P31645); assay: [3H]IMI dissociation rate assay (allosteric potency); type: binding;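 further: membranes of COS-7 cells transiently expressing hSERT, dissociation of prebound radioligand tracked by filtration over seven time points (5–70 min), rate constant with test ligand expressed relative to buffer-only rate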
T1 construct: expressed in transfected cells; host or cells: COS-7
T1 sequence (P31645 whole entry): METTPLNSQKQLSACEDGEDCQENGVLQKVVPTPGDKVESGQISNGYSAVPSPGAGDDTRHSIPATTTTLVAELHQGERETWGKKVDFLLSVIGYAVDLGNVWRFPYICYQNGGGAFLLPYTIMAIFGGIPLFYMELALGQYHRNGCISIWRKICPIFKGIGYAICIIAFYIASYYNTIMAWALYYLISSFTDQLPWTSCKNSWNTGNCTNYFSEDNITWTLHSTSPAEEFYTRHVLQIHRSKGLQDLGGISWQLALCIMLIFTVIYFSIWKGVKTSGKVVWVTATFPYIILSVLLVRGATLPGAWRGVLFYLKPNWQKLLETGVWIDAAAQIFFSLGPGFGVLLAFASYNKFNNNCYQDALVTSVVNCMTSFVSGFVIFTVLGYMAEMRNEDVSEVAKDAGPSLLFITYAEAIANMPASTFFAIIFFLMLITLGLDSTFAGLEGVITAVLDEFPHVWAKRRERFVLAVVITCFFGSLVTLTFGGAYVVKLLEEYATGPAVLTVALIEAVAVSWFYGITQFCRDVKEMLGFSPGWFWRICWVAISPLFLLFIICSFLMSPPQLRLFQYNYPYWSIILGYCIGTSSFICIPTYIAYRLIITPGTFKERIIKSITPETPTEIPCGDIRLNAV

SERT WT [2] = molecular target: T1, SERT WT; assay: [3H]S-CIT dissociation rate assay (allosteric potency); type: binding
SERT WT [3] = molecular target: T1, SERT WT; assay: [3H]IMI competitive binding on COS-7 membranes
Experimental: [^3H]S-CIT and [^3H]IMI competitive binding experiments were performed on membrane preparations of COS-7 cells transiently transfected with SERT WT. Membrane aliquots were mixed with membrane buffer containing 5–10 nM of either [^3H]S-CIT or [^3H]IMI and Lu AF60097 in the indicated concentrations to a final volume of 300 µL. The binding experiments were incubated 1 h at room temperature and subsequently filtered, washed and counted as described under ‘[^3H]IMI and [^3H]S-CIT dissociation rate assay’. Non-specific binding was determined by adding 5 µM paroxetine.

SERT E494Q = molecular target: T2, SERT E494Q (Homo sapiens, UniProt P31645, E494Q); assay: [3H]IMI dissociation rate assay; type: binding
T2 construct: expressed in transfected cells; host or cells: COS-7
T2 sequence (P31645 whole entry E494Q): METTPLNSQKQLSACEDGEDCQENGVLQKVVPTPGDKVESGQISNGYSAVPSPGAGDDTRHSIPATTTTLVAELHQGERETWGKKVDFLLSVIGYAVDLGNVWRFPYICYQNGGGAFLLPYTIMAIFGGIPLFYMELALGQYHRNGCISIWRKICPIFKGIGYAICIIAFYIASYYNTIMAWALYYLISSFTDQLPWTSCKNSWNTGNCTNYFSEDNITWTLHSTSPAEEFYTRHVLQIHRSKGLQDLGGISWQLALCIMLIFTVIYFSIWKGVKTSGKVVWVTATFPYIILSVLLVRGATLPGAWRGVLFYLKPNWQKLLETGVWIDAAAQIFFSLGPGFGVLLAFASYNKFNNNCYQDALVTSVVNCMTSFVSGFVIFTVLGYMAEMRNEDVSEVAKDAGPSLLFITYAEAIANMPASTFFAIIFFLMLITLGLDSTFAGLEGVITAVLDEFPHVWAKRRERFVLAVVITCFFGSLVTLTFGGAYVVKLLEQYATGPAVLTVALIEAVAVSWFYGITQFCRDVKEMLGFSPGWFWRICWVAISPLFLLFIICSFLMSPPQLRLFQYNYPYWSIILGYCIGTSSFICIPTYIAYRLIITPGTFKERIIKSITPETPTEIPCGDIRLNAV

SERT E494K = molecular target: T3, SERT E494K (Homo sapiens, UniProt P31645, E494K); assay: [3H]IMI dissociation rate assay; type: binding
T3 construct: expressed in transfected cells; host or cells: COS-7
T3 sequence (P31645 whole entry E494K): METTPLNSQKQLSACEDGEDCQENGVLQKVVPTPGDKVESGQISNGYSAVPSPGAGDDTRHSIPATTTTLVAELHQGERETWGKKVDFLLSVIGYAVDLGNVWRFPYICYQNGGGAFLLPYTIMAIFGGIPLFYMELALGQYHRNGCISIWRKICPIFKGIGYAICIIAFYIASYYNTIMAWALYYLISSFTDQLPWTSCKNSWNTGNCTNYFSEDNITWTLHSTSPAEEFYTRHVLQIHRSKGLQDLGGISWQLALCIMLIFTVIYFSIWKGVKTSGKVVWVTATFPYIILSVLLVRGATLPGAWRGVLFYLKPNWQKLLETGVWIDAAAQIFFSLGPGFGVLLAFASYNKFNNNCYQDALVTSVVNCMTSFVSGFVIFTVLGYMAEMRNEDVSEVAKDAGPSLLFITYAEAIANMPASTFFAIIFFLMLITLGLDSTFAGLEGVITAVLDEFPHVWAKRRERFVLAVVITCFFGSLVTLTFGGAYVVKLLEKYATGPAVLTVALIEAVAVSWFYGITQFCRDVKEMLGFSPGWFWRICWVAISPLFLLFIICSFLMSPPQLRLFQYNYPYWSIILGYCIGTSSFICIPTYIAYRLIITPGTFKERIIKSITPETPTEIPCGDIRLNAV
Experimental: (§1) All mutations were confirmed by DNA sequencing. The used primers were
(§2) The allosteric potency was calculated as previously described.

SERT A486E-K490A = molecular target: T4, SERT A486E-K490A (Homo sapiens, UniProt P31645, A486E/K490A); assay: [3H]IMI dissociation rate assay; type: binding; details: A486E-K490A
T4 construct: expressed in transfected cells; host or cells: COS-7
T4 sequence (P31645 whole entry A486E/K490A): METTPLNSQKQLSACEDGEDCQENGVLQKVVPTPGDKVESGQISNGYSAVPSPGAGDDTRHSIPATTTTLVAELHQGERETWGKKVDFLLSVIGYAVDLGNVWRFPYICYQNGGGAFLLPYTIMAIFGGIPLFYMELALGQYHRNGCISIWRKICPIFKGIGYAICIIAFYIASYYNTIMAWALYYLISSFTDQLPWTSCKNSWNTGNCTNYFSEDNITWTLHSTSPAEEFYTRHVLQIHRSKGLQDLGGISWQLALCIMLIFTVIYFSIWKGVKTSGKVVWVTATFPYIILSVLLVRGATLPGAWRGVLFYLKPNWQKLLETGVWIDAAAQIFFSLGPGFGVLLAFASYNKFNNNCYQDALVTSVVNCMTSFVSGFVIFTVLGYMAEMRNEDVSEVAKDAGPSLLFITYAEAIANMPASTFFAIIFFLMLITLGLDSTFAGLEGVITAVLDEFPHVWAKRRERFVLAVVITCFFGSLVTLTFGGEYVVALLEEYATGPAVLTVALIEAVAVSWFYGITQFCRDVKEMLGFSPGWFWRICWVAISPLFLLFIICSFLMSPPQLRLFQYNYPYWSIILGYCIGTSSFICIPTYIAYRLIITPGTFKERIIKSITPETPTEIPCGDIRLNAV
Experimental: as §1, §2

Structure (SMILES): NC(=O)c1ccc2c(c1)CO[C@@]2(CCCN1CCC(c2ccc3ccc(=O)[nH]c3c2)CC1)c1ccc(F)cc1 [Lu AF60097, (S)-1-(4-fluorophenyl)-1-(3-(4-(2-oxo-1,2-dihydroquinolin-7-yl)piperidin-1-yl)propyl)-1,3-dihydroisobenzofuran-5-carboxamide]
- Higher allosteric potency with prebound [^3H]IMI relative to prebound [^3H]S-CIT (SERT WT [1]; SERT WT): 200 fold
- [^3H]IMI dissociation relative to control (source data Fig 3C) (SERT WT [1]; SERT WT, log conc -5.4318): 0.0325
- [^3H]IMI dissociation relative to control (source data Fig 3C) (SERT WT [1]; SERT WT, log conc -7.3398): 0.5967 and 0.5153 and 0.3551 and 0.4862 and 0.4455
- [^3H]IMI dissociation relative to control (source data Fig 3C) (SERT WT [1]; SERT WT, log conc -7.817): 0.6907 and 0.7383 and 0.5957 and 0.7538 and 0.5364
- [^3H]IMI dissociation relative to control (source data Fig 3C) (SERT WT [1]; SERT WT, log conc -8.2941): 0.7767 and 0.8969 and 0.8389 and 0.8612 and 0.685
- [^3H]IMI dissociation relative to control (source data Fig 3C) (SERT WT [1]; SERT WT, log conc -8.7712): 0.9679 and 0.8619
- pIC50 (SERT WT [1]; SERT WT, read-out: Allosteric potency inhibition of [^3H]IMI dissociation (IC50)): 7.50 and 7.51
- Gain in allosteric potency relative to any other reported S2-bound hSERT ligand (SERT WT [1]; comparison with ref 22): > 100 fold
- Increase in allosteric potency compared with citalopram (SERT WT [1]; in the presence of S1:IMI): > 150 fold
- [^3H]S-CIT dissociation relative to control (source data Fig 3B) (SERT WT [2]; log conc -4): 0.1541 and 0.1918 and 0.2298
- [^3H]S-CIT dissociation relative to control (source data Fig 3B) (SERT WT [2]; log conc -4.47756): 0.2646 and 0.3943 and 0.2986 and 0.219 and 0.3366
- [^3H]S-CIT dissociation relative to control (source data Fig 3B) (SERT WT [2]; log conc -4.95468): 0.4248 and 0.6032 and 0.3921 and 0.3044 and 0.3481
- [^3H]S-CIT dissociation relative to control (source data Fig 3B) (SERT WT [2]; log conc -5.4318): 0.6087 and 0.8042 and 0.6275 and 0.541 and 0.6453
- [^3H]S-CIT dissociation relative to control (source data Fig 3B) (SERT WT [2]; log conc -5.9101): 0.7519 and 0.9034 and 0.8094 and 0.7437 and 0.8779
- [^3H]S-CIT dissociation relative to control (source data Fig 3B) (SERT WT [2]; log conc -6.38561): 0.8673 and 0.9045 and 0.9664 and 0.838 and 0.8643
- [^3H]S-CIT dissociation relative to control (source data Fig 3B) (SERT WT [2]; log conc -6.86273): 0.9943 and 0.9294 and 0.9623
- pIC50 (SERT WT [2]; read-out: Allosteric potency inhibition of [^3H]S-CIT dissociation (IC50)): 5.19
- Displacement of [^3H]IMI in binding experiment (SERT WT [3]; equilibrium binding, SERT WT membranes): not displaced
- Displacement of [3H]IMI binding (normalized bound, Fig S6) (SERT WT [3]; log[Lu AF60097] -4.9586): 0.8037 and 0.8081 and 0.979
- Displacement of [3H]IMI binding (normalized bound, Fig S6) (SERT WT [3]; log[Lu AF60097] -5.2596): 0.9221 and 1.029 and 1.04
- Displacement of [3H]IMI binding (normalized bound, Fig S6) (SERT WT [3]; log[Lu AF60097] -5.5607): 1.05 and 0.9989 and 1.0302
- Displacement of [3H]IMI binding (normalized bound, Fig S6) (SERT WT [3]; log[Lu AF60097] -5.8617): 1.118 and 1.161 and 1.01
- Displacement of [3H]IMI binding (normalized bound, Fig S6) (SERT WT [3]; log[Lu AF60097] -6.1627): 1.173 and 1.156 and 0.9563
- Displacement of [3H]IMI binding (normalized bound, Fig S6) (SERT WT [3]; log[Lu AF60097] -6.4638): 1.154 and 1.04 and 1.011
- Displacement of [3H]IMI binding (normalized bound, Fig S6) (SERT WT [3]; log[Lu AF60097] -6.7648): 1.061 and 1.088 and 0.8905
- Displacement of [3H]IMI binding (normalized bound, Fig S6) (SERT WT [3]; log[Lu AF60097] -7.0658): 1.098 and 0.9993 and 0.8339
- Displacement of [3H]IMI binding (normalized bound, Fig S6) (SERT WT [3]; log[Lu AF60097] -7.3668): 1.049 and 0.9798
- Displacement of [3H]IMI binding (normalized bound, Fig S6) (SERT WT [3]; log[Lu AF60097] -7.6679): 1.052 and 1.0159
- ΔAP (mut/WT), change in allosteric potency relative to SERT WT (SERT E494Q; E494Q, [^3H]IMI dissociation): 5
- pIC50 (SERT E494Q; SERT E494Q, read-out: Allosteric potency inhibition of [^3H]IMI dissociation (IC50)): 6.77
- ΔAP (mut/WT), change in allosteric potency relative to SERT WT (SERT E494K; E494K, [^3H]IMI dissociation): 286
- [^3H]IMI dissociation relative to control (source data Fig 4B) (SERT E494K; E494K, log conc -5.432): 0.0801 and 0.1174 and 0.0764
- [^3H]IMI dissociation relative to control (source data Fig 4B) (SERT E494K; E494K, log conc -5.91): 0.1958 and 0.2217 and 0.1263
- [^3H]IMI dissociation relative to control (source data Fig 4B) (SERT E494K; E494K, log conc -6.386): 0.3078 and 0.3762 and 0.3174
- [^3H]IMI dissociation relative to control (source data Fig 4B) (SERT E494K; E494K, log conc -6.863): 0.5705 and 0.5743 and 0.4488
- [^3H]IMI dissociation relative to control (source data Fig 4B) (SERT E494K; E494K, log conc -7.34): 0.7153 and 0.7476 and 0.7791
- [^3H]IMI dissociation relative to control (source data Fig 4B) (SERT E494K; E494K, log conc -7.817): 0.8258 and 0.83 and 0.9008
- [^3H]IMI dissociation relative to control (source data Fig 4B) (SERT E494K; E494K, log conc -8.294): 0.8606 and 0.9262 and 0.8913
- pIC50 (SERT E494K; SERT E494K (TM10), read-out: Lu AF60097 allosteric potency ([^3H]IMI dissociation IC50)): 5.05
- ΔAP (mut/WT), change in allosteric potency relative to SERT WT (SERT A486E-K490A; [^3H]IMI dissociation): 77
- [^3H]IMI dissociation relative to control (source data Fig 4B) (SERT A486E-K490A; log conc -4.955): 0.2089 and 0.1837 and 0.2062
- [^3H]IMI dissociation relative to control (source data Fig 4B) (SERT A486E-K490A; log conc -5.432): 0.4714 and 0.3471 and 0.3282
- [^3H]IMI dissociation relative to control (source data Fig 4B) (SERT A486E-K490A; log conc -5.91): 0.664 and 0.6181 and 0.6285
- [^3H]IMI dissociation relative to control (source data Fig 4B) (SERT A486E-K490A; log conc -6.386): 0.93 and 0.8402 and 0.7554
- [^3H]IMI dissociation relative to control (source data Fig 4B) (SERT A486E-K490A; log conc -6.863): 1.01 and 0.967 and 0.9554
